target: C1/C2 + Gsα (VC1:IIC2 plus Gsα-GTPγS) (Canis lupus familiaris; Rattus norvegicus; Bos taurus, UniProt P26769+P30803); assay: […]cAMP formation from [α-32P]ATP, stimulation of catalysis; assay type: biochemical
Sequence (P30803 442-656): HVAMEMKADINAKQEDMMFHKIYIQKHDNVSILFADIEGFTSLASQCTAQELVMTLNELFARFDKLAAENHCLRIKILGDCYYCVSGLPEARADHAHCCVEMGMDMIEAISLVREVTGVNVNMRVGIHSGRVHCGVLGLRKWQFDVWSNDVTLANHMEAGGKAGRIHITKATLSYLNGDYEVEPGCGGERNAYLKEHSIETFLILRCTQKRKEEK
Sequence (P26769 870-1081): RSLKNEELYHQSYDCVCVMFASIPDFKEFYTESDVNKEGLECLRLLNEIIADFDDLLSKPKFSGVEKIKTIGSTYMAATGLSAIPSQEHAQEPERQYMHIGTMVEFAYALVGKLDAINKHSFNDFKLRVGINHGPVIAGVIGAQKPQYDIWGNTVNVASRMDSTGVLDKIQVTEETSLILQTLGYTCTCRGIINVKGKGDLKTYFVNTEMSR
Sequence (P04896 2-394 partner): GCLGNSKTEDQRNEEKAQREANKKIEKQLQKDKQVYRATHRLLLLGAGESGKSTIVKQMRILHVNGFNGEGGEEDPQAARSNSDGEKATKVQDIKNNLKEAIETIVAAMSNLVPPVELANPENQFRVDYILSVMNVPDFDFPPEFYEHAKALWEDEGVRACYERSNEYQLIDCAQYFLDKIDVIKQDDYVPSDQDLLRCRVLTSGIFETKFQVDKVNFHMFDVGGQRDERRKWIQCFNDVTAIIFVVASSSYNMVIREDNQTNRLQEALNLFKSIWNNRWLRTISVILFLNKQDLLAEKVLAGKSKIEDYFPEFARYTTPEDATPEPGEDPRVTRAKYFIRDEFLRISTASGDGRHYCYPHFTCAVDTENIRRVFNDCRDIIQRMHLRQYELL

EC50 | SMILES
2.6 ± 1 µM | C=C[C@@]1(C)CC(=O)[C@]2(O)[C@@]3(C)[C@@H](O)CCC(C)(C)[C@@H]3[C@H](OC(C)=O)[C@H](O)[C@@]2(C)O1 [6A7DA-FS]
19.5 ± 0.7 µM | C=C[C@@]1(C)CC(=O)[C@H]2[C@](C)(O1)[C@@H](OC(C)=O)[C@@H](O)[C@H]1C(C)(C)CC[C@H](O)[C@@]12C [9d-FS]
27.6 ± 7 µM | C=C[C@@]1(C)CC(=O)[C@]2(O)[C@@]3(C)[C@@H](O)CCC(C)(C)[C@@H]3[C@H](O)[C@H](OC(=O)CCCN3CCN(C)CC3)[C@@]2(C)O1 [DMB-FS]
7.4 ± 1.2 µM | C=C[C@@]1(C)CC(=O)[C@]2(O)[C@@]3(C)[C@@H](O)CCC(C)(C)[C@@H]3[C@H](O)[C@H](OC(C)=O)[C@@]2(C)O1 [FS]

Source: paper PMC2692545 (Biochemical pharmacology, 2009)
